# According to patent US8247211B2, “Glycopeptide antibiotics” (American Cyanamid Company, priority 2001, dated 2012):
# Assays:
# Experiment in all cases: In vitro antibacterial evaluation: minimum inhibitory concentration (MIC), broth dilution method
# Format in all cases: cell-based
# Enterococcus sp. = details: broth dilution, 18 hours at 35° C.
# Method in brief: (§1)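 Inoculum: 5×10^5 CFU/mL. Range: 64-0.06 μg/mL. Medium: Muller-Hinton II […]; NCCLS M7-A2 broth dilution. Endpoint: lowest concentration inhibiting growth. Strains include methicillin-, penicillin- and/or vancomycin-resistant clinical isolates.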
# Staphylococcus sp. = details: broth dilution, 18 hours at 35° C.; for MIC Staphylococcus aureus-SMITH (GC 4543): strain SMITH GC 4543
# Method in brief: as §1
# Streptococcus sp. = details: broth dilution, 18 hours at 35° C.
# Method in brief: as §1
# Escherichia coli = details: broth dilution, 18 hours at 35° C.
# [1] = Enterococcus faecalis (ATCC 29212)
# [2] = Enterococcus faecalis (GC 2242)
# [3] = Enterococcus faecalis (GC 2691)
# [4] = Enterococcus faecalis (GC 3059)
# [5] = Enterococcus faecalis (GC 4552)
# [6] = Enterococcus faecalis (GC 4553)
# [7] = Enterococcus faecalis (GC 4554)
# [8] = Enterococcus faecalis (GC 6189)
# [9] = Streptococcus agalactiae (GC 4564)
# [10] = Streptococcus pneumoniae (ATCC 6301)
# [11] = Streptococcus pneumoniae (GC 1894)
# [12] = Streptococcus pneumoniae (GC 4565)
# [13] = Streptococcus pyogenes (GC 4563)
smiles,measurement,setting,value
"CC(c1ccccc1)C1NC(=O)CNC(=O)C(CO)NC(=O)C(C(O)C2CNC(=N)N2C2OC(CO)C(O)C(O)C2O)NC(=O)C(C(O)C2CNC(=N)N2)NC(=O)C(Cc2ccc3oc(-c4ccc(C(C)(C)C)cc4)nc3c2)NC1=O (stereo not drawn) [Example 32, Cyclo[3-[2-(4-tert-butylphenyl)-1,3-benzoxazol-5-yl]alanyl-3-(2-iminoimidazolidin-4-yl)seryl-3-(3-hexopyranosyl-2-iminoimidazolidin-4-yl)serylserylglycyl-β-methylphenylalanyl]]",MIC Enterococcus avium (GC 4558),Enterococcus sp.; Enterococcus avium (GC 4558),4 µg/mL
same,MIC Enterococcus faecalis (ATCC 29212),Enterococcus sp.; [1],8 µg/mL
same,MIC Enterococcus faecalis (GC 2242),Enterococcus sp.; [2],4 µg/mL
same,MIC Enterococcus faecalis (GC 2691),Enterococcus sp.; [3],8 µg/mL
same,MIC Enterococcus faecalis (GC 3059),Enterococcus sp.; [4],8 µg/mL
same,MIC Enterococcus faecalis (GC 4552),Enterococcus sp.; [5],8 µg/mL
same,MIC Enterococcus faecalis (GC 4553),Enterococcus sp.; [6],8 µg/mL
same,MIC Enterococcus faecalis (GC 4554),Enterococcus sp.; [7],4 µg/mL
same,MIC Enterococcus faecalis (GC 6189),Enterococcus sp.; [8],4 µg/mL
same,MIC Enterococcus faecium (GC 2243),Enterococcus sp.; Enterococcus faecium (GC 2243),4 µg/mL
same,MIC Enterococcus faecium (GC 4556),Enterococcus sp.; Enterococcus faecium (GC 4556),8 µg/mL
same,MIC Enterococcus faecium (GC 4557),Enterococcus sp.; Enterococcus faecium (GC 4557),2 µg/mL
same,MIC Enterococcus avium (GC 4558),Enterococcus sp.,4 µg/mL
same,MIC Enterococcus faecalis (ATCC 29212),Enterococcus sp.,8 µg/mL
same,MIC Enterococcus faecalis (GC 2242),Enterococcus sp.,4 µg/mL
same,MIC Enterococcus faecalis (GC 2691),Enterococcus sp.,8 µg/mL
same,MIC Enterococcus faecalis (GC 3059),Enterococcus sp.,8 µg/mL
same,MIC Enterococcus faecalis (GC 4552),Enterococcus sp.,8 µg/mL
same,MIC Enterococcus faecalis (GC 4553),Enterococcus sp.,8 µg/mL
same,MIC Enterococcus faecalis (GC 4554),Enterococcus sp.,4 µg/mL
same,MIC Enterococcus faecalis (GC 6189),Enterococcus sp.,4 µg/mL
same,MIC Enterococcus faecium (GC 2243),Enterococcus sp.,4 µg/mL
same,MIC Enterococcus faecium (GC 4556),Enterococcus sp.,8 µg/mL
same,MIC Enterococcus faecium (GC 4557),Enterococcus sp.,2 µg/mL
same,MIC Coagulase Negative Staphylococcus (GC 4547),Staphylococcus sp.,2 µg/mL
same,MIC Coagulase Negative Staphylococcus (GC 4548),Staphylococcus sp.,1 µg/mL
same,MIC Coagulase Negative Staphylococcus (GC 4549),Staphylococcus sp.,2 µg/mL
same,MIC Coagulase Negative Staphylococcus (GC 4551),Staphylococcus sp.,4 µg/mL
same,MIC Coagulase Negative Staphylococcus (GC 6257),Staphylococcus sp.,2 µg/mL
same,MIC Staphylococcus aureus SMITH (GC 4543),Staphylococcus sp.,2 µg/mL
same,MIC Staphylococcus haemolyticus (GC 4546),Staphylococcus sp.,2 µg/mL
same,MIC Staphylococcus aureus-SMITH (GC 4543),Staphylococcus sp.,2 µg/mL
same,MIC Streptococcus agalactiae (GC 4564),Streptococcus sp.; [9],16 µg/mL
same,MIC Streptococcus pneumoniae (ATCC 6301),Streptococcus sp.; [10],16 µg/mL
same,MIC Streptococcus pneumoniae (GC 1894),Streptococcus sp.; [11],16 µg/mL
same,MIC Streptococcus pneumoniae (GC 4565),Streptococcus sp.; [12],16 µg/mL
same,MIC Streptococcus pyogenes (GC 4563),Streptococcus sp.; [13],8 µg/mL
same,MIC Streptococcus agalactiae (GC 4564),Streptococcus sp.,16 µg/mL
same,MIC Streptococcus pneumoniae (ATCC 6301),Streptococcus sp.,16 µg/mL
same,MIC Streptococcus pneumoniae (GC 1894),Streptococcus sp.,16 µg/mL
same,MIC Streptococcus pneumoniae (GC 4565),Streptococcus sp.,16 µg/mL
same,MIC Streptococcus pyogenes (GC 4563),Streptococcus sp.,8 µg/mL
same,MIC Escherichia coli (ATCC 25922),Escherichia coli,16 µg/mL
same,MIC Escherichia coli (GC 4559),Escherichia coli,16 µg/mL
same,MIC Escherichia coli (GC 4560),Escherichia coli,4 µg/mL
"COc1cc(-c2nc3cc(CC4NC(=O)C(C(C)c5ccccc5)NC(=O)CNC(=O)C(CO)NC(=O)C(C(O)C5CNC(=N)N5C5OC(CO)C(O)C(O)C5O)NC(=O)C(C(O)C5CNC(=N)N5)NC4=O)ccc3o2)cc(OC)c1OC (stereo not drawn) [Example 34, Cyclo[3-[2-(3,4,5-trimethoxyphenyl)-1,3-benzoxazol-5-yl]alanyl-3-(2-iminoimidazolidin-4-yl)seryl-3-(3-hexopyranosyl-2-iminoimidazolidin-4-yl)serylserylglycyl-β-methylphenyl-alanyl]]",MIC Enterococcus avium (GC 4558),Enterococcus sp.; Enterococcus avium (GC 4558),16 µg/mL
same,MIC Enterococcus faecalis (ATCC 29212),Enterococcus sp.; [1],64 µg/mL
same,MIC Enterococcus faecalis (GC 2242),Enterococcus sp.; [2],32 µg/mL
same,MIC Enterococcus faecalis (GC 2691),Enterococcus sp.; [3],32 µg/mL
same,MIC Enterococcus faecalis (GC 3059),Enterococcus sp.; [4],32 µg/mL
same,MIC Enterococcus faecalis (GC 4552),Enterococcus sp.; [5],32 µg/mL
same,MIC Enterococcus faecalis (GC 4553),Enterococcus sp.; [6],32 µg/mL
same,MIC Enterococcus faecalis (GC 4554),Enterococcus sp.; [7],32 µg/mL
same,MIC Enterococcus faecalis (GC 6189),Enterococcus sp.; [8],64 µg/mL
same,MIC Enterococcus faecium (GC 2243),Enterococcus sp.; Enterococcus faecium (GC 2243),32 µg/mL
same,MIC Enterococcus faecium (GC 4556),Enterococcus sp.; Enterococcus faecium (GC 4556),64 µg/mL
same,MIC Enterococcus faecium (GC 4557),Enterococcus sp.; Enterococcus faecium (GC 4557),8 µg/mL
same,MIC Enterococcus avium (GC 4558),Enterococcus sp.,16 µg/mL
same,MIC Enterococcus faecalis (ATCC 29212),Enterococcus sp.,64 µg/mL
same,MIC Enterococcus faecalis (GC 2242),Enterococcus sp.,32 µg/mL
same,MIC Enterococcus faecalis (GC 2691),Enterococcus sp.,32 µg/mL
same,MIC Enterococcus faecalis (GC 3059),Enterococcus sp.,32 µg/mL
same,MIC Enterococcus faecalis (GC 4552),Enterococcus sp.,32 µg/mL
same,MIC Enterococcus faecalis (GC 4553),Enterococcus sp.,32 µg/mL
same,MIC Enterococcus faecalis (GC 4554),Enterococcus sp.,32 µg/mL
same,MIC Enterococcus faecalis (GC 6189),Enterococcus sp.,64 µg/mL
same,MIC Enterococcus faecium (GC 2243),Enterococcus sp.,32 µg/mL
same,MIC Enterococcus faecium (GC 4556),Enterococcus sp.,64 µg/mL
same,MIC Enterococcus faecium (GC 4557),Enterococcus sp.,8 µg/mL
same,MIC Coagulase Negative Staphylococcus (GC 4547),Staphylococcus sp.,16 µg/mL
same,MIC Coagulase Negative Staphylococcus (GC 4548),Staphylococcus sp.,16 µg/mL
same,MIC Coagulase Negative Staphylococcus (GC 4549),Staphylococcus sp.,4 µg/mL
same,MIC Coagulase Negative Staphylococcus (GC 4551),Staphylococcus sp.,32 µg/mL
same,MIC Coagulase Negative Staphylococcus (GC 6257),Staphylococcus sp.,8 µg/mL
same,MIC Staphylococcus aureus SMITH (GC 4543),Staphylococcus sp.,16 µg/mL
same,MIC Staphylococcus haemolyticus (GC 4546),Staphylococcus sp.,8 µg/mL
same,MIC Staphylococcus aureus-SMITH (GC 4543),Staphylococcus sp.,16 µg/mL
same,MIC Streptococcus agalactiae (GC 4564),Streptococcus sp.; [9],32 µg/mL
same,MIC Streptococcus pneumoniae (ATCC 6301),Streptococcus sp.; [10],32 µg/mL
same,MIC Streptococcus pneumoniae (GC 1894),Streptococcus sp.; [11],16 µg/mL
same,MIC Streptococcus pneumoniae (GC 4565),Streptococcus sp.; [12],32 µg/mL
same,MIC Streptococcus pyogenes (GC 4563),Streptococcus sp.; [13],8 µg/mL
same,MIC Streptococcus agalactiae (GC 4564),Streptococcus sp.,32 µg/mL
same,MIC Streptococcus pneumoniae (ATCC 6301),Streptococcus sp.,32 µg/mL
same,MIC Streptococcus pneumoniae (GC 1894),Streptococcus sp.,16 µg/mL
same,MIC Streptococcus pneumoniae (GC 4565),Streptococcus sp.,32 µg/mL
same,MIC Streptococcus pyogenes (GC 4563),Streptococcus sp.,8 µg/mL
same,MIC Escherichia coli (ATCC 25922),Escherichia coli,64 µg/mL
same,MIC Escherichia coli (GC 4559),Escherichia coli,64 µg/mL
same,MIC Escherichia coli (GC 4560),Escherichia coli,16 µg/mL
